Measured values taken from patent US4855426A, “Process of preparing 1,5-epoxy-2,3,4,5-tetrahydro-1H-3-benzazepins” (Ortho Pharmaceutical Corporation, priority 1988, dated 1989).
Where a name gives a salt, the structure may show the parent alone. Read-outs that look alike come from different tables or passages of the source.

Assays:
acid output = test: Gastric Secretion, inhibition of acid output in pylorus ligated rats; assay type: in vivo, male Charles River Sprague Dawley derived rats; settings: Rattus norvegicus, 4 h, intraduodenal, four hours
Experimental: (§1) The inhibitory activity of the compounds on acid output was tested using pylorus ligation in a modification of the procedure of Shay, H., et al., Gastroenterology 26, 906 (1954). Basically, male Charles River Sprague Dawley derived rats weighing 150-300 grams were deprived of food but not water for 18-24 hours prior to use. Water was withheld during the experiment, however. The rats were weighed, anesthetized with ether and the pylorus ligated according to the method of Shay et al., supra. Treatment or vehicle control was then administered intraduodenally (i.d.). Rats were housed two/cage and sacrificed with CO2 four hours after ligation. The stomachs were removed, rinsed, and contents emptied into a graduated centrifuge tube. The tubes were centrifuged, the volume of gastric juice recorded, and any samples obviously contaminated by feces, food or blood were eliminated. A 1 ml aliquot of gastric juice was titrated with 0.1N NaOH to a pH of 7.0-7.4. The volume of gastric juice secreted, the acid concentration, and the product of the volume times the concentration, i.e., the total amount of acid secreted, were measured.

Pepsin = test: In Vivo Pepsin Assay, radioenzymatic, gastric juice of pylorus ligated rat
Experimental: as §1
Pepsin activity was measured by a radioenzymatic assay. An aliquot of a 1:1000 dilution of rat gastric juice was incubated with the substrate solution (containing methyl-^14 C-methylated methemoglobin and nonradioactive methemoglobin in 10 mM sodium citrate buffer, pH 3.0) for a period of ten minutes at 37° C. After this time, trichloroacetic acid was added to stop the reaction and to precipitate the unreacted substrate. After removal of the precipitate by centrifugation, an aliquot of the supernatant fraction is quantitated for radioactivity by liquid scintillation spectrometry. Rat gastric juice samples were obtained after drug administration in the pylorus ligated rat (Example 42). Data is presented as the percent inhibition of pepsin activity in drug treated gastric samples compared to enzyme activity observed for control gastric juice samples. […]

Gastric Secretion = test: Gastric Secretion, betazole stimulated, dogs with total gastric fistulas; assay type: in vivo, Female dogs; settings: gastric fistula dogs
Description: This is a secondary test used to follow-up compounds which have shown gastric antisecretory activity in the four-hour pylorus ligated rat (Example 42). Female dogs were surgically prepared with total gastric fistulas and allowed to recover.

Lesions = test: Cytoprotection, ethanol (necrotizing agent) induced lesions in rats; assay type: in vivo, male Charles River Sprague Dawley derived rats; settings: oral, 50% EtOH one hour later
Experimental: The cytoprotective activity of the compounds was tested using a modification of the method of Robert, A., et al., Gastroenterology 77, 433 (1979). Basically, male Charles River Sprague Dawley derived rats weighing between 140 and 220 g were fasted overnight, but allowed water ad libitum. They were deprived of water during the experiment, however. The rats were weighed and pretreated orally with the test compound in a dose volume of 1 ml/kg. One hour later, the necrotizing agent was administered orally, usually 50% EtOH, in a dose volume of 1 ml/animal. After an additional hour, the rats were sacrificed with CO2, the stomachs removed, inflated with distilled water, opened along the greater curvature and laid out on a flat surface. The presence of mucosal bleeding and incidence of lesions were noted, and after wiping off the mucosa the presence of submucosal bleeding and incidence of lesions were also noted.

parietal cells = test: Isolated Parietal Cell Assay, 14C-aminopyrine accumulation in histamine stimulated parietal cells; assay type: cell-based, rabbit; settings: Oryctolagus cuniculus, 20 min, read-out: IC50, inhibition of 14C-AP accumulation in the histamine stimulated parietal cell
Experimental: The isolated parietal cell assay was conducted using the procedures of Batzri, S., et al., Biochemica et Biophysica Acta 508, 328 (1978) and Soll, A. H., Am. J. Physiol. 238, G366 (1980). Basically, parietal cells were isolated from the fundic mucosa of rabbit stomachs by a four-stage collagenase digestion process. The supernatant fraction from the last two stages of this process contain the individual parietal cells. This cell suspension was centrifuged and reconstituted in a modified Hank's buffer to contain 2-3×10^6 cells/ml. […] The accumulation was stimulated by histamine and was blocked by H2 antagonists. The cells were incubated with 0.5×10^6 cpm ^14 C-AP, with various concentrations of histamine, 1×10^-5 M isobutylmethylxanthine, and the test compound added in a 20 μl volume of buffer or DMSO. The flasks were incubated in a shaking water bath at 37° C. for 20 minutes. Two aliquots were then taken from each flask and cell pellets were collected by centrifugation. The pellets were solubilized with Protosol (New England Nuclear) and radioactivity determined by liquid scintillation spectrometry. Data is presented as the IC50, the concentration of compound required to inhibit ^14 C-AP accumulation in the histamine stimulated parietal cell by 50%.

[1] = rabbit parietal cells, 37° C., 20 minutes, 1×10^-5 M isobutylmethylxanthine

FC(F)(F)c1cccc(C23CN(CCCOc4cccc(CN5CCCCC5)c4)CC(O2)c2ccccc23)c1 (stereo not shown) [Example 4, 3-[3-[[3-(1-Piperidinyl)methyl]phenoxy]propyl]-1,5-epoxy-1-(3-trifluoromethyl)phenyl-1,2,4,5-tetrahydro-3-benzazepin dioxalate monohydrate]
inhibition in vivo at 40 mg/kg (acid output): 46%
% Inhibition of Pepsin Activity (Pepsin; 40 mg/kg): 52%
% Inhibition of Gastric Secretion (Gastric Secretion; 7.3 mg/kg (iv)): 85%
% Inhibition of Gastric Secretion (Gastric Secretion; 20 mg/kg (ig)): 48%
% Inhibition of Lesions, Mucosa (Lesions; 10 mg/kg): 70%
% Inhibition of Lesions, Submucosa (Lesions; 10 mg/kg): 80%
% Inhibition of Lesions, Mucosa (Lesions; 20 mg/kg): 88%
% Inhibition of Lesions, Submucosa (Lesions; 20 mg/kg): 100%
IC50 (parietal cells; [1]): 4.5 µM

CN(C)Cc1ccc(CSCCN2CC3OC(c4ccccc4)(C2)c2ccccc23)o1 (stereo not shown) [Example 12, 3-[2-[[[5-(Dimethylamino)methyl-2-furanyl]methylthio]ethyl]-1,5-epoxy-1-phenyl-1,2,4,5-tetrahydro-3-benzazepin dioxalate hemihydrate]
% Inhibition of Lesions, Mucosa (Lesions; 10 mg/kg): 20%
% Inhibition of Lesions, Submucosa (Lesions; 10 mg/kg): 11%
IC50 (parietal cells; [1]): 0.25 to 0.37 µM

COc1cc2c(cc1OC)C1CN(CCSCc3ccc(CN(C)C)o3)CC2O1 [Example 36, 3-[2-[[[5-(Dimethylamino)methyl-2-furanyl]methylthio]ethyl]-1,5-epoxy-7,8-dimethoxy-1,2,4,5-tetrahydro-3-benzazepin dioxalate monohydrate]
inhibition in vivo at 20 mg/kg (acid output): 26%
IC50 (parietal cells; [1]): 30 µM

c1ccc(CN2CC3OC(C2)c2ccccc23)cc1 [Example 18, 3-Benzyl-1,5-epoxy-1,2,4,5-tetrahydro-3-benzazepin oxalate]
inhibition in vivo at 50 mg/kg (acid output): 23%

c1ccc(C23CN(CCCOc4cccc(CN5CCCCC5)c4)CC(O2)c2ccccc23)cc1 (stereo not shown) [Example 11, 3-[3-[[3-(1-Piperidinyl)methyl]methyl]phenoxy]propyl]-1,5-epoxy-1-phenyl-1,2,4,5-tetrahydro-3-benzazepin dioxalate hemihydrate]
inhibition in vivo at 40 mg/kg (acid output): 39%
% Inhibition of Pepsin Activity (Pepsin; 40 mg/kg): 30%
% Inhibition of Lesions, Mucosa (Lesions; 40 mg/kg): 80%
% Inhibition of Lesions, Submucosa (Lesions; 40 mg/kg): 100%
IC50 (parietal cells; [1]): 3.5 µM

c1ccc2c(c1)C1CN(CCCN3CCOCC3)CC2O1 [Example 22, 1,5-Epoxy-3-[N-(3-morpholinopropyl)]-1,2,4,5-tetrahydro-3-benzazepin dioxalate]
inhibition in vivo at 50 mg/kg (acid output): 33%

Clc1ccc2c(c1)C1CNCC2O1 (stereo not shown) [Example 14, 7-Chloro-1,5-epoxy-1,2,4,5-tetrahydro-3-benzazepin oxalate.1/4H2 O]
inhibition in vivo at 50 mg/kg (acid output): 40%

CN(C)Cc1ccc(CSCCN2CC3OC(c4cccc(C(F)(F)F)c4)(C2)c2ccccc23)o1 (stereo not shown) [Example 5, 3-[2-[[[5-(Dimethylamino)methyl-2-furanyl]methylthio]ethyl]-1,5-epoxy-1-[3-trifluoromethyl)phenyl-1,2,4,5-tetrahydro-3-benzazepin dioxalate]
inhibition in vivo at 20 mg/kg (acid output): 46%
% Inhibition of Pepsin Activity (Pepsin; 20 mg/kg): 28-43%
% Inhibition of Lesions, Mucosa (Lesions; 10 mg/kg): 10%
% Inhibition of Lesions, Submucosa (Lesions; 10 mg/kg): 30%
IC50 (parietal cells; [1]): 1 to 1.3 µM

C=CCN1CC2OC(C1)c1cc(Cl)ccc12 (stereo not shown) [Example 13, 3-Allyl-7-chloro-1,5-epoxy-1,2,4,5-tetrahydro-3-benzazepin oxalate.1/4H2 O]
inhibition in vivo at 50 mg/kg (acid output): 33%

c1ccc(C23CNCC(O2)c2ccccc23)cc1 (stereo not shown) [Example 7, 1,5-Epoxy-1-phenyl-1,2,4,5-tetrahydro-3-benzazepin]
inhibition in vivo at 50 mg/kg (acid output): 68%

FC(F)(F)c1cccc(C23CN(CCCN4CCOCC4)CC(O2)c2ccccc23)c1 (stereo not shown) [Example 3, 1,5-Epoxy-3-[N-(3-morpholinopropyl)-1-[(3-trifluoromethyl)phenyl]-1,2,4,5-tetrahydro-3-benzazepin dioxalate]
inhibition in vivo at 25 mg/kg (acid output): 48%

c1ccc2c(c1)C1CNCC2(C2OCCO2)O1 (stereo not shown) [Example 30, 1-(1,3-Dioxolan-2-yl)-1,5-epoxy-1,2,4,5-tetrahydro-3-benzazepin]
inhibition in vivo at 50 mg/kg (acid output): 23%

FC(F)(F)c1cccc(C23CNCC(O2)c2ccccc23)c1 (stereo not shown) [Example 2, 1,5-Epoxy-1-[(3-trifluoromethyl)phenyl]-1,2,4,5-tetrahydro-3-benzazepin oxalate]
inhibition in vivo at 25 mg/kg (acid output): 71%
% Inhibition of Gastric Secretion (Gastric Secretion; 2 mg/kg (ig)): 53%
% Inhibition of Gastric Secretion (Gastric Secretion; 40 mg/kg (route not given)): 75%
% Inhibition of Lesions, Mucosa (Lesions; 25 mg/kg): 56%
% Inhibition of Lesions, Submucosa (Lesions; 25 mg/kg): 56%
IC50 (parietal cells): 3.5 µM
